Measured values as given in patent publication US12215116B2, “Arginase inhibitors and methods of use” (Merck Sharp & Dohme LLC, priority 2018, dated 2025).

Target: T1, Arginase (ARG1 enzyme) (Homo sapiens, UniProt P05089)
T1 construct: made in house; host or cells: Escherichia coli
T1 sequence (P05089 1-322): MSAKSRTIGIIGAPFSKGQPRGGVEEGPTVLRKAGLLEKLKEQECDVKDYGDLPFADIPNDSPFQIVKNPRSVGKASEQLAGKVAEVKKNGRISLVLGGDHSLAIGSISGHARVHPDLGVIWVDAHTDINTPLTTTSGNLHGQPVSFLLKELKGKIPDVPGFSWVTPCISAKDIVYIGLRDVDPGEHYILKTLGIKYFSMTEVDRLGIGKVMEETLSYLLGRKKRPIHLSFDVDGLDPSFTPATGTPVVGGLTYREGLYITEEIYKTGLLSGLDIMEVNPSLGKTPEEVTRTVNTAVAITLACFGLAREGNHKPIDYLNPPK
Experiment: Arginase Thioornithine Generating Assay (TOGA)
Format: biochemical
Settings: 1.88 nM arginase, thioarginine substrate, fluorescence readout
Protocol: Arginase Thioornithine Generating Assay (TOGA)
Compounds were serially diluted in ten 3-fold steps in DMSO starting from 10 mM DMSO stocks. Compound dilutions or DMSO alone were then dispensed from the dilution plate into a Greiner black 384-well assay plate (catalog #781086) using an Echo 555 acoustic liquid handler (Labcyte).
Arginase protein was recombinantly expressed in Escherichia coli. Purified protein was then diluted in assay buffer (50 mM Tris pH 7.5, 50 mM NaCl, 1 mM manganese chloride, 0.05% bovine serum albumin to obtain a final Arginase concentration of 1.88 nM. Arginase solution (20 μL) or buffer alone (20 μL) were dispensed to wells of the assay plate using a BioRAPTR liquid dispenser (Beckman Coulter). Assay plates containing compound and ARG1 enzyme were incubated at room temperature for 30 minutes. Afterwards, 5 μL of 2.5 mM thioarginine (Cayman Chemicals) in assay buffer were added to each well of the assay plate using a BioRAPTR liquid dispenser. Plates were incubated at room temperature for 60 minutes and reactions were quenched by addition of 15 μL of […] 7-Diethylamine-3-(4-maleimidophenyl)-4-methylcoumarin (Sigma Chemical) in 70% ethanol. Plates were briefly shaken to mix and the fluorescence was measured in an Spectramax plate reader (Molecular Devices) with a 410 nm excitation wavelength and an 490 nm emission wavelength.
Potencies were calculated by […] to the four parameter logistic IC50 equation.

| SMILES | IC50 [nM] |
| --- | --- |
| O=C(O)[C@H]1NC[C@@H](O)[C@H]1CCCB(O)O [Example 20B, (3S,4S) 3-[3-(dihydroxyboranyl)propyl]-4-hydroxy-L-proline] | > 10000 |
| CC1(C)[C@H]2C[C@@H]3OB(CCC[C@]4(C)CCN[C@@H]4C(=O)O)O[C@]3(C)[C@@H]1C2 [Example 22, (2S,3R)-3-methyl-3-(3-((3aR,4R,6R,7aS)-3a,5,5-trimethylhexahydro-4,6-methanobenzo[d][1,3,2]dioxaborol-2-yl)propyl)pyrrolidine-2-carboxylic acid] | 151 |
| O=C(O)[C@H]1NC[C@H](N2CCCC2)[C@H]1CCCB(O)O [Example 25, (3′R,4′S,5′S)-4′-(3-boronopropyl)-[1,3′-bipyrrolidine]-5′-carboxylic acid] | 522 |
| O=C(O)[C@H]1NC[C@H](NCC(F)(F)F)[C@H]1CCCB(O)O [Example 26, (2S,3R,4R)-3-(3-boronopropyl)-4-((2,2,2-trifluoroethyl)amino)pyrrolidine-2-carboxylic acid] | 120 |
| O=C(O)[C@H]1NC[C@H](NCC(F)F)[C@H]1CCCB(O)O [Example 27, (2S,3R,4R)-3-(3-boronopropyl)-4-((2,2-difluoroethyl)amino)pyrrolidine-2-carboxylic acid] | 128 |
| CCN(CC)[C@H]1CN[C@H](C(=O)O)[C@@H]1CCCB(O)O [Example 28, (2S,3S,4R)-3-(3-boronopropyl)-4-(diethylamino)pyrrolidine-2-carboxylic acid] | 3290 |
| CN[C@H]1CN[C@H](C(=O)O)[C@@H]1CCCB(O)O [Example 29, (2S,3R,4R)-3-(3-boronopropyl)-4-(methylamino)pyrrolidine-2-carboxylic acid] | 20.1 |
| CCN[C@H]1CN[C@H](C(=O)O)[C@@H]1CCCB(O)O [Example 30, (2S,3R,4R)-3-(3-boronopropyl)-4-(ethylamino)pyrrolidine-2-carboxylic acid] | 84.5 |
| NCCN[C@H]1CN[C@H](C(=O)O)[C@@H]1CCCB(O)O [Example 31, (2S,3R,4R)-4-((2-aminoethyl)amino)-3-(3-boronopropyl)pyrrolidine-2-carboxylic acid] | 6.69 |
| NCC1CN[C@H](C(=O)O)C1CCCB(O)O (stereo partly drawn) [Example 34, (2S)-4-(aminomethyl)-3-(3-boronopropyl)pyrrolidine-2-carboxylic acid] | 3450 |
| CO[C@H]1CN[C@H](C(=O)O)[C@@H]1CCCB(O)O [Example 36, (2S,3S,4R)-3-(3-boronopropyl)-4-methoxypyrrolidine-2-carboxylic acid] | 46.1 |
| CC(C)[C@H](N)C(=O)N[C@H]1CN[C@H](C(=O)O)[C@@H]1CCCB(O)O [Example 37, (2S,3R,4R)-4-((S)-2-amino-3-methylbutanamido)-3-(3-boronopropyl)pyrrolidine-2-carboxylic acid] | 2.09 |
| CC(C)(C)[C@H](N)C(=O)N[C@H]1CN[C@H](C(=O)O)[C@@H]1CCCB(O)O [Example 38, (2S,3R,4R)-4-((S)-2-amino-3,3-dimethylbutanamido)-3-(3-boronopropyl)pyrrolidine-2-carboxylic acid] | 0.818 |
| CC(C)(O)[C@H](N)C(=O)N[C@H]1CN[C@H](C(=O)O)[C@@H]1CCCB(O)O [Example 39, (2S,3R,4R)-4-((S)-2-amino-3-hydroxy-3-methylbutanamido)-3-(3-boronopropyl)pyrrolidine-2-carboxylic acid] | 10.2 |
| N[C@H](C(=O)N[C@H]1CN[C@H](C(=O)O)[C@@H]1CCCB(O)O)C1CCCC1 [Example 40, (2S,3R,4R)-4-((S)-2-amino-2-cyclopentylacetamido)-3-(3-boronopropyl)pyrrolidine-2-carboxylic acid] | 0.778 |
| C[C@H](N)C(=O)N[C@H]1CN[C@H](C(=O)O)[C@@H]1CCCB(O)O [Example 41, (2S,3R,4R)-4-((S)-2-aminopropanamido)-3-(3-boronopropyl)pyrrolidine-2-carboxylic acid] | 13.6 |
| CC(C)C[C@H](N)C(=O)N[C@H]1CN[C@H](C(=O)O)[C@@H]1CCCB(O)O [Example 42, (2S,3R,4R)-4-((S)-2-amino-4-methylpentanamido)-3-(3-boronopropyl)pyrrolidine-2-carboxylic acid] | 1.58 |
| CN[C@H](C(=O)N[C@H]1CN[C@H](C(=O)O)[C@@H]1CCCB(O)O)C(C)C [Example 43, (2S,3R,4R)-3-(3-boronopropyl)-4-((S)-3-methyl-2-(methylamino)butanamido)pyrrolidine-2-carboxylic acid] | 2.98 |
| CC[C@@H](C)[C@H](N)C(=O)N[C@H]1CN[C@H](C(=O)O)[C@@H]1CCCB(O)O [Example 44, (2S,3R,4R)-4-((2S,3R)-2-amino-3-methylpentanamido)-3-(3-boronopropyl)pyrrolidine-2-carboxylic acid] | 2 |

| SMILES | IC50 [nM] |
| --- | --- |
| CC[C@H](C)[C@H](N)C(=O)N[C@H]1CN[C@H](C(=O)O)[C@@H]1CCCB(O)O [Example 45, (2S,3R,4R)-4-((2S,3S)-2-amino-3-methylpentanamido)-3-(3-boronopropyl)pyrrolidine-2-carboxylic acid] | 2 |
| CC(C)[C@@H](N)C(=O)N[C@H]1CN[C@H](C(=O)O)[C@@H]1CCCB(O)O [Example 46, (2S,3R,4R)-4-((R)-2-amino-3-methylbutanamido)-3-(3-boronopropyl)pyrrolidine-2-carboxylic acid] | 35.4 |
| CC(C)[C@](C)(N)C(=O)N[C@H]1CN[C@H](C(=O)O)[C@@H]1CCCB(O)O [Example 47, (2S,3R,4R)-4-((S)-2-amino-2,3-dimethylbutanamido)-3-(3-boronopropyl)pyrrolidine-2-carboxylic acid] | 29 |
| N[C@H](C(=O)N[C@H]1CN[C@H](C(=O)O)[C@@H]1CCCB(O)O)C1Cc2ccccc2C1 [Example 48, (2S,3R,4R)-4-((S)-2-amino-2-(2,3-dihydro-1H-inden-2-yl)acetamido)-3-(3-boronopropyl)pyrrolidine-2-carboxylic acid] | 2 |
| O=C(N[C@H]1CN[C@H](C(=O)O)[C@@H]1CCCB(O)O)[C@@H]1CCCN1 [Example 49, (2S,3R,4R)-3-(3-boronopropyl)-4-((S)-pyrrolidine-2-carboxamido)pyrrolidine-2-carboxylic acid] | 13 |
| CC(=O)N[C@H]1CN[C@H](C(=O)O)[C@@H]1CCCB(O)O [Example 50, (2S,3R,4R)-4-acetamido-3-(3-boronopropyl)pyrrolidine-2-carboxylic acid] | 247 |
| C[C@H](N)C(=O)N(C)[C@H]1CN[C@H](C(=O)O)[C@@H]1CCCB(O)O [Example 51, (2S,3S,4R)-4-((S)-2-amino-N-methylpropanamido)-3-(3-boronopropyl)pyrrolidine-2-carboxylic acid] | 985 |
| O=C(O)[C@H]1NCCO[C@H]1CCCB(O)O [Example 52, (2S,3S)-2-(3-boronopropyl)morpholine-3-carboxylic acid] | 211 |
| O=C(O)[C@@]1(CCO)NCC[C@H]1CCCB(O)O [Example 53, (2S,3R)-3-(3-boronopropyl)-2-(2-hydroxyethyl)pyrrolidine-2-carboxylic acid] | 1480 |
| CN(C)CC[C@]1(C(=O)O)NCC[C@H]1CCCB(O)O [Example 54, (2S,3R)-3-(3-boronopropyl)-2-(2-(dimethylamino)ethyl)pyrrolidine-2-carboxylic acid] | 31.5 |
| O=C(O)[C@@]1(CCN2CCCC2)NCC[C@H]1CCCB(O)O [Example 55] | 15.9 |
| O=C(O)[C@@]1(CCN2CCC2)NCC[C@H]1CCCB(O)O [Example 56] | 20.8 |
| CN(C)C[C@]1(C(=O)O)NCC[C@H]1CCCB(O)O [Example 58, (2R,3R)-3-(3-boronopropyl)-2-((dimethylamino)methyl)pyrrolidine-2-carboxylic acid] | > 10000 |
| O=C(O)[C@@]1(CO)NCC[C@H]1CCCB(O)O [Example 59A, (2R,3R)-3-(3-boronopropyl)-2-(hydroxymethyl)pyrrolidine-2-carboxylic acid] | 311 |
| NC[C@@H]1C[C@@H](CCCB(O)O)[C@@H](C(=O)O)N1 [Example 60A, (2S,3R,5S)-5-(aminomethyl)-3-(3-boronopropyl)pyrrolidine-2-carboxylic acid] | 29.5 |
| NC[C@H]1C[C@H](CCCB(O)O)[C@H](C(=O)O)N1 [Example 60B, (2R,3S,5R)-5-(aminomethyl)-3-(3-boronopropyl)pyrrolidine-2-carboxylic acid] | 1780 |
| CN(C)C[C@@H]1C[C@@H](CCCB(O)O)[C@@H](C(=O)O)N1 [Example 61, (2S,3R,5S)-3-(3-boronopropyl)-5-((dimethylamino)methyl)pyrrolidine-2-carboxylic acid] | 439 |
| CNC[C@@H]1C[C@@H](CCCB(O)O)[C@@H](C(=O)O)N1 [Example 62, (2S,3R,5S)-3-(3-boronopropyl)-5-((methylamino)methyl)pyrrolidine-2-carboxylic acid] | 34.9 |
